Reference: patent US20240101546A1, “HETEROARYL-ACETYLENES, PHARMACEUTICAL COMPOSITIONS THEREOF, AND THEIR THERAPEUTIC APPLICATIONS” (Eubulus Biotherapeutics Inc., priority 2020, published 2024)

These compounds were tested on lung cancer cell line NCI-H82 (assay: Cell proliferation assay, NCI-H82 (CELL-TITER GLO)). Settings: Homo sapiens, NCI-H82, 72 h, NCI-H82 cells, 72 h incubation, cell viability by CELL-TITER GLO, top concentration 1 μM; read-out: EC50, Inhibition of NCl-H82 Cell Proliferation.
Type: cell-based
In short: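 NCI-H82 cells, 1,000 per well in RPMI1640, were treated after overnight plating with a 3-fold dilution series from 1 μM. Viability read by CellTiter-Glo luminescence after 72 h. EC50 derived from the curves.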

Structure (SMILES) | EC50
C#Cc1nnc(NC(=O)N[C@@H](CO)c2ccc(-c3cccc4ccnc(O)c34)cc2)s1 [Compound A108, (R)-1-(5-Ethynyl-1,3,4-thiadiazol-2-yl)-3-(2-hydroxy-1-(4-(1-hydroxyisoquinolin-8-yl)phenyl)ethyl)urea] | 200 to 1000 nM
C#Cc1nc(N(C)C(=O)N(C)[C@@H](CO)c2ccc(-c3cccc4ncsc34)cc2)cs1 [Compound A113, (R)-1-(1-(4-(Benzo[d]thiazol-7-yl)phenyl)-2-hydroxyethyl)-3-(2-ethynylthiazol-4-yl)-1,3-dimethylurea] | 200 to 1000 nM
C#Cc1nc(NC(=O)N[C@@H](CO)c2ccc(-c3cccc4ncsc34)cn2)cs1 [Compound A114, (R)-1-(1-(5-(Benzo[d]thiazol-7-yl)pyridin-2-yl)-2-hydroxyethyl)-3-(2-ethynyl-thiazol-4-yl)urea] | ≤ 200 nM
C#Cc1nc(NC(=O)N[C@@H](CS(N)(=O)=O)c2ccc(-c3ccc(F)c4ncsc34)c(Cl)c2)cs1 [Compound A115, (R)-2-(3-Chloro-4-(4-fluorobenzo[d]thiazol-7-yl)phenyl)-2-(3-(2-ethynylthiazol-4-yl)ureido)ethane-1-sulfonamide] | ≤ 200 nM
C#Cc1nc(NC(=O)N[C@@H](COC(=O)[C@@H](N)C(C)C)c2ccc(-c3cccc4ncsc34)cc2)cs1 [Compound A116, (R)-2-(4-(Benzo[d]thiazol-7-yl)phenyl)-2-(3-(2-ethynylthiazol-4-yl)ureido)ethyl L-valinate] | ≤ 200 nM
C#Cc1nc(NC(=O)N[C@@H](COC(=O)CCC/C=C\C/C=C\C/C=C\C/C=C\CCCCC)c2ccc(-c3cccc4ncsc34)cc2)cs1 [Compound A117, (5Z,8Z,11Z,14Z)—(R)-2-(4-(Benzo[d]thiazol-7-yl)phenyl)-2-(3-(2-ethynylthiazol-4-yl)ureido)ethyl icosa-5,8,11,14-tetraenoate] | ≤ 200 nM
C#Cc1ncc(NC(=O)N[C@@H](CO)c2ccc(-c3cccc4ncsc34)cc2)s1 [Compound A118, (R)-1-(1-(4-(Benzo[d]thiazol-7-yl)phenyl)-2-hydroxyethyl)-3-(2-ethynylthiazol-5-yl)urea] | 200 to 1000 nM
C#Cc1nc(NC(=O)N[C@@H](CO)c2ccc(-c3cccc4ncsc34)cc2)c(C)s1 [Compound A119, (R)-1-(1-(4-(Benzo[d]thiazol-7-yl)phenyl)-2-hydroxyethyl)-3-(2-ethynyl-5-methylthiazol-4-yl)urea] | ≤ 200 nM
C#Cc1nnc(NC(=O)N[C@@H](CO)c2ccc(-c3cccc4ncsc34)cc2)s1 [Compound A120, (R)-1-(1-(4-(Benzo[d]thiazol-7-yl)phenyl)-2-hydroxyethyl)-3-(5-ethynyl-1,3,4-thiadiazol-2-yl)urea] | ≤ 200 nM
C#Cc1nc(NC(=O)N[C@@H](CO)c2ccc(-c3cccc4ncsc34)cc2)ns1 [Compound A122, (R)-1-(1-(4-(Benzo[d]thiazol-7-yl)phenyl)-2-hydroxyethyl)-3-(5-ethynyl-1,2,4-thiadiazol-3-yl)urea] | 200 to 1000 nM
C#Cc1ccnc(NC(=O)N[C@@H](CO)c2ccc(-c3cccc(N4CCCC4)n3)cc2)n1 [Compound A123, (R)-1-(4-Ethynylpyrimidin-2-yl)-3-(2-hydroxy-1-(4-(6-(pyrrolidin-1-yl)pyridin-2-yl)phenyl)ethyl)urea] | ≤ 200 nM
C#Cc1cccc(NC(=O)N[C@@H](CO)c2ccc(-c3cccc(N4CCCC4)n3)cc2)n1 [Compound A124, (R)-1-(6-Ethynylpyridin-2-yl)-3-(2-hydroxy-1-(4-(6-(pyrrolidin-1-yl)pyridin-2-yl)phenyl)ethyl)urea] | 200 to 1000 nM
C#Cc1nccc(NC(=O)N[C@@H](CO)c2ccc(-c3cccc(N4CCCC4)n3)cc2)n1 [Compound A125, (R)-1-(2-Ethynylpyrimidin-4-yl)-3-(2-hydroxy-1-(4-(6-(pyrrolidin-1-yl)pyridin-2-yl)phenyl)ethyl)urea] | ≤ 200 nM
C#Cc1nc(NC(=O)N[C@@H](CO)c2ccc(N3CC(F)(F)C3)cc2)cs1 [Compound A126, (R)-1-(1-(4-(3,3-Difluoroazetidin-1-yl)phenyl)-2-hydroxyethyl)-3-(2-ethynyl-thiazol-4-yl)urea] | ≤ 200 nM
C#Cc1nc(NC(=O)N[C@@H](COC(N)=O)c2ccc(N3CC(F)(F)C3)cc2)cs1 [Compound A127, (R)-2-(4-(3,3-Difluoroazetidin-1-yl)phenyl)-2-(3-(2-ethynylthiazol-4-yl)ureido)-ethyl carbamate] | ≤ 200 nM
C#Cc1nc(NC(=O)N[C@@H](CO)c2ccc(N3CCCC3)cc2)cs1 [Compound A128, (R)-1-(2-Ethynylthiazol-4-yl)-3-(2-hydroxy-1-(4-(pyrrolidin-1-yl)phenyl)ethyl)-urea] | ≤ 200 nM
C#Cc1nc(NC(=O)N[C@@H](CO)c2ccc(N3CCCC3=O)cc2)cs1 [Compound A129, (R)-1-(2-Ethynylthiazol-4-yl)-3-(2-hydroxy-1-(4-(2-oxopyrrolidin-1-yl)phenyl)-ethyl)urea] | ≤ 200 nM
C#Cc1nc(NC(=O)N[C@@H](CO)c2ccc(N3CCC(F)(F)C3)cc2)cs1 [Compound A130, (R)-1-(1-(4-(3,3-Difluoropyrrolidin-1-yl)phenyl)-2-hydroxyethyl)-3-(2-ethynyl-thiazol-4-yl)urea] | ≤ 200 nM
C#Cc1nc(NC(=O)N[C@@H](CO)c2ccc(N3CCCCC3=O)cc2)cs1 [Compound A131, (R)-1-(2-Ethynylthiazol-4-yl)-3-(2-hydroxy-1-(4-(2-oxopiperidin-1-yl)phenyl)-ethyl)urea] | ≤ 200 nM
C#Cc1nc(NC(=O)N[C@@H](CO)c2ccc(-n3ccccc3=O)cc2)cs1 [Compound A132, (R)-1-(2-Ethynylthiazol-4-yl)-3-(2-hydroxy-1-(4-(2-oxopyridin-1(2H)-yl)phenyl)-ethyl)urea] | ≤ 200 nM
C#Cc1nc(NC(=O)N[C@@H](CO)c2ccc(N3CCOCC3)cc2)cs1 [Compound A133, (R)-1-(2-Ethynylthiazol-4-yl)-3-(2-hydroxy-1-(4-morpholinophenyl)ethyl)urea] | ≤ 200 nM
C#Cc1nc(NC(=O)N[C@@H](CO)c2ccc(N3CCOCC3=O)cc2)cs1 [Compound A134, (R)-1-(2-Ethynylthiazol-4-yl)-3-(2-hydroxy-1-(4-(3-oxomorpholino)phenyl)-ethyl)urea] | 200 to 1000 nM
C#Cc1nc(NC(=O)N[C@@H](CO)c2ccc(N3CCCCC3)cn2)cs1 [Compound A135, (R)-1-(2-Ethynylthiazol-4-yl)-3-(2-hydroxy-1-(5-(piperidin-1-yl)pyridin-2-yl)-ethyl)urea] | ≤ 200 nM
C#Cc1nc(NC(=O)N[C@@H](CO)c2ccc(N3CCCC(F)(F)C3)cn2)cs1 [Compound A136, (R)-1-(1-(5-(3,3-Difluoropiperidin-1-yl)pyridin-2-yl)-2-hydroxyethyl)-3-(2-ethynylthiazol-4-yl)urea] | ≤ 200 nM

Next, values leading:

EC50 | Structure (SMILES)
≤ 200 nM | C#Cc1nc(NC(=O)N[C@@H](CO)c2ccc(-c3cccnc3N(C)C)c(Cl)c2)cs1 [Compound A100, (R)-1-(1-(3-Chloro-4-(2-(dimethylamino)pyridin-3-yl)phenyl)-2-hydroxyethyl)-3-(2-ethynylthiazol-4-yl)urea]
≤ 200 nM | C#Cc1nc(NC(=O)N[C@@H](COC(N)=O)c2ccc(-c3cccnc3N(C)C)c(Cl)c2)cs1 [Compound A101, (R)-2-(3-Chloro-4-(2-(dimethylamino)pyridin-3-yl)phenyl)-2-(3-(2-ethynyl-thiazol-4-yl)ureido)ethyl carbamate]
≤ 200 nM | C#Cc1nc(NC(=O)N[C@@H](CO)c2ccc(-c3cccnc3N3CC(F)(F)C3)cc2)cs1 [Compound A102, (R)-1-(1-(4-(2-(3,3-Difluoroazetidin-1-yl)pyridin-3-yl)phenyl)-2-hydroxyethyl)-3-(2-ethynylthiazol-4-yl)urea]
≤ 200 nM | C#Cc1nc(NC(=O)N[C@@H](COC(N)=O)c2ccc(-c3cccnc3N3CC(F)(F)C3)cc2)cs1 [Compound A103, (R)-2-(4-(2-(3,3-Difluoroazetidin-1-yl)pyridin-3-yl)phenyl)-2-(3-(2-ethynyl-thiazol-4-yl)ureido)ethyl carbamate]
≤ 200 nM | C#Cc1nc(NC(=O)N[C@@H](CO)c2ccc(-c3cccc4ccnc(O)c34)cc2)cs1 [Compound A104, (R)-1-(2-Ethynylthiazol-4-yl)-3-(2-hydroxy-1-(4-(1-hydroxyisoquinolin-8-yl)-phenyl)ethyl)urea]
≤ 200 nM | C#Cc1nc(NC(=O)N[C@@H](COC(N)=O)c2ccc(-c3cccc4ccnc(O)c34)cc2)cs1 [Compound A105, (R)-2-(3-(2-Ethynylthiazol-4-yl)ureido)-2-(4-(1-hydroxyisoquinolin-8-yl)phenyl)-ethyl carbamate]
≤ 200 nM | C#Cc1nc(NC(=O)N[C@@H](CO)c2ccc(-c3cccc4ccnc(O)c34)c(Cl)c2)cs1 [Compound A107, (R)-1-(1-(3-Chloro-4-(1-hydroxyisoquinolin-8-yl)phenyl)-2-hydroxyethyl)-3-(2-ethynylthiazol-4-yl)urea]
≤ 200 nM | C#Cc1nc(NC(=O)N[C@@H](CO)c2ccc(-c3cccc4ncnc(O)c34)cc2)cs1 [Compound A109, (R)-1-(2-Ethynylthiazol-4-yl)-3-(2-hydroxy-1-(4-(4-hydroxyquinazolin-5-yl)phenyl)ethyl)urea]
≤ 200 nM | C#Cc1nc(NC(=O)N[C@@H](CO)c2ccc(-c3cccc4ncnc(O)c34)c(Cl)c2)cs1 [Compound A110, (R)-1-(1-(3-Chloro-4-(4-hydroxyquinazolin-5-yl)phenyl)-2-hydroxyethyl)-3-(2-ethynylthiazol-4-yl)urea]
≤ 200 nM | C#Cc1nc(NC(=O)N(C)[C@@H](CO)c2ccc(-c3cccc4ncsc34)cc2)cs1 [Compound A111, (R)-1-(1-(4-(Benzo[d]thiazol-7-yl)phenyl)-2-hydroxyethyl)-3-(2-ethynylthiazol-4-yl)-1-methylurea]
≤ 200 nM | C#Cc1nc(N(C)C(=O)N[C@@H](CO)c2ccc(-c3cccc4ncsc34)cc2)cs1 [Compound A112, (R)-3-(1-(4-(Benzo[d]thiazol-7-yl)phenyl)-2-hydroxyethyl)-1-(2-ethynylthiazol-4-yl)-1-methylurea]
